Measurements as given in US11530186B2, “Inhibitors for the β-catenin / T-cell factor protein-protein interaction” (H. LEE MOFFITT CANCER CENTER AND RESEARCH INSTITUTE, INC., priority 2018, dated 2022).
Where two headings read alike, the source gives them in different places.

Biological target: T1, β-catenin/Tcf protein-protein interaction (Homo sapiens, UniProt P35222)
T1 construct: Wild-type β-catenin (residues 138-781) were cloned into a pET-28b vector; 6×histidine (C); made in house; host or cells: E. coli BL21 DE3
T1 sequence (P35222 138-781): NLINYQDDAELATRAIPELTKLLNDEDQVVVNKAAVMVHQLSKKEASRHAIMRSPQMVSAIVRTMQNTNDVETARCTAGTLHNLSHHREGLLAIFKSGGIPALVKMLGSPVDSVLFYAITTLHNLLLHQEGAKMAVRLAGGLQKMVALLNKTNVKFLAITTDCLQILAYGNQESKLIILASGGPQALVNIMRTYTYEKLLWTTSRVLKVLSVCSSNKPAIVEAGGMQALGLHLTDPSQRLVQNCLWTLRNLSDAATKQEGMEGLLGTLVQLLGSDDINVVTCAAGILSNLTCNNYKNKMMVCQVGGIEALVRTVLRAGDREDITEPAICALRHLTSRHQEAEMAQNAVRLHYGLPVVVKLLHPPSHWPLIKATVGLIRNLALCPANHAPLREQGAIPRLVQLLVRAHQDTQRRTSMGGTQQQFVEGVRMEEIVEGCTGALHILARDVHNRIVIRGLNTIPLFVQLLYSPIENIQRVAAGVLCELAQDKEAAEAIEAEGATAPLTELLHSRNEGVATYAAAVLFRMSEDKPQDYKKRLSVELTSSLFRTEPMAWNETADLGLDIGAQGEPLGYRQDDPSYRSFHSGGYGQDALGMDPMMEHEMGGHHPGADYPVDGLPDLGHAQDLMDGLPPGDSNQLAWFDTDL
Assay: FP competitive inhibition assay
Type: binding
Summary of the method: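 His-tagged human β-catenin (residues 138-781, E. coli-expressed) at 10 nM with 2.5 nM fluorescein-labeled Tcf4 (7-51) in PBS-type buffer with bovine γ-globulin and 0.01% Triton X-100. Compounds added, 1.5 h at 4 °C, 1% DMSO, before fluorescence polarization read. IC50 by nonlinear fit; Ki derived from IC50.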

- Ki (Assay 1, mean ± SD (n = 3), read-out: Ki ± SD, Assay 1): 3.3 ± 0.64 µM
- Ki (Assay 2, mean ± SD (n = 3), read-out: Ki ± SD, Assay 2): 1.3 ± 0.38 µM
- Ki (Assay 3, mean ± SD (n = 3), read-out: Ki ± SD, Assay 3): 5.6 ± 1.8 µM
Structure (SMILES): O=C(O)c1ccc2c(c1)c(CCc1ccc(Cl)cc1)c(CCc1nc3ccccc3s1)n2CCc1nn[nH]n1 [Compound 27, 1-(2-(2H-tetrazol-5-yl)ethyl)-2-(2-(benzo[d]thiazol-2-yl)ethyl)-3-(4-chlorophenethyl)-1H-indole-5-carboxylic acid]
